Measured values reported in patent publication US9358252B2, “Polysaccharide compositions and methods of use for the treatment and prevention of disorders associated with progenitor cell mobilization” (MOMENTA PHARMACEUTICALS, INC., priority 2007, dated 2016).

Assays:
[1] = tested on: C170HM2 human colorectal tumor cells; test: C170HM2 colon cancer metastasis to the liver model; format: in vivo, MF1 nude (nu/nu) athymic mice; conditions: 25 mg/kg i.v. cycled on days 1, 3, 5, 7; liver tumors day 35
Experimental: Liver metastasis was initiated by intraperitoneal injection of C170HM2 human colorectal tumor cells into male MF1 nude (nu/nu) athymic mice. 5FU/leucovorin was used as a positive control.
C170HM2 cells were maintained in vitro in RPMI culture medium (Sigma) containing 10% (v/v) heat inactivated fetal bovine serum and 2 mM L-glutamine at 37° C. in 5% CO2 and humidified conditions. Cells from sub-confluent monolayers were harvested with 0.025% EDTA, washed in culture medium and re-suspended in sterile phosphate buffered saline, pH 7.4 (PBS) for in vivo administration. 1.5×10^6 cells in a volume of 1 ml were injected intraperitoneally into 65 mice, and the mice were allocated into treatment groups as below.
Treatment was initiated on day 1 following cell injection and continued until day 35 or until the clinical condition of the animal required termination. Groups 5 and 6 missed one dose on day 5. No adverse affects of the test compounds in mice bearing the tumors were observed.
The study was terminated on day 35, and the tumors in the liver were excised and weighed. The numbers of lung nodules are also counted.

4T1 cells [2] = test: 4T1 breast cancer metastasis to the lung model, daily treatment; format: in vivo, BALB/c mice; conditions: Cisplatin weekly from day 5
Experimental: Female BALB/c mice 8 weeks of age (WOA) were injected with 8×10^4 4T1 cell intra mammary fat pad. Daily treatment with saline or MONC402 with or without weekly treatment of cisplatin started on day 5. Primary tumors were removed on day 9 and weighed.

[3] = tested on: endothelial progenitor cells (EPC); test: EPC mobilization in normal mice, single MONC402 dose; format: in vivo; conditions: G-CSF 200 μg/kg 3 days; docetaxel i.p. 40 mg/kg; cisplatin i.p. 6 mg/kg; 24 h
Experimental: In one experiment, normal mice were treated with G-CSF (s.c., 3 consecutive days), docetaxel or cisplatin (one i.p. dose) with or without simultaneous MONC402 treatment (one s.c. dose). EPC mobilization was monitored 24 h later. Mice (8 mice/group) were dosed s.c. with Saline or MONC402 (40 mg/kg) (or DC101 at 40 mg/kg for control with docetaxel). About 30 min later, mice were given docetaxel (i.p., 40 mg/kg), cisplatin (i.p., 6 mg/kg), or saline control. As a positive control, 2 groups of mice were also dosed with G-CSF […]. (200 μg/kg) for 3 days, either alone or in combination with a single dose of MONC402 (s.c. at 40 mg/kg) on the last day. 24 h later, the mice were euthanized, and 0.5-0.8 mL of blood taken by cardiac puncture:
About 300 μL of whole blood was transferred directly into 14 mL of lysis buffer for flow cytometry of EPC. The remaining 300-600 μL were processed for serum (SDF-1α). For flow cytometry, lysed cells were washed and blocked, then stained with CD13-FITC, CD117-PE, 7-AAD, VEGFR2-APC, and CD45-PE/Cy7. A total of 50,000 cells were acquired per sample in the PBMNC gate.

4T1 cells [4] = test: Second 4T1 experiment, osmotic pump delivery; format: in vivo, BALB/c mice; conditions: MONC402 20 mg/kg/day osmotic pump; Cisplatin 1.25 mg/kg weekly; day 32
Experimental: FIG. 2 is a bar graph showing the effect of a polysaccharide preparation described herein in a 4T1 therapeutic model of breast cancer metastasis to the lung. Lung tumor burden (lung weight-normal lung weight) was determined on day 32 for female BALB/c mice (8 weeks old) challenged with intra-mammary fat pad injection of 8×10^4 4T1 cells and treated as indicated starting on day 4. In a second 4T1 experiment, female BALB/c mice 8 WOA were injected with 8×10^4 4T1 cells intra mammary fat pad. Continuous osmotic pump delivery of saline or MONC 402 with weekly treatment of saline or Cisplatin started on day 4. Primary tumors were removed on day 9. […] The experiment terminated on day 32 and different samples were taken. 6 mice were either found dead or were terminated early due to worsened overall condition. 4T1 lung metastases were determined by lung weight, lung tumor nodule quantification including nodule number, size and calculated tumor volume, as well as histological quantification.

[5] = tested on: endothelial progenitor cells (EPC); test: Docetaxel induced EPC mobilization in 4T1 tumor bearing mice, MONC402 via osmotic pump; format: in vivo; conditions: Docetaxel 40 mg/kg i.p. Day 6; MONC402 osmotic pump 40 mg/kg/day monotherapy
Experimental: A third experiment was conducted to evaluate the effect of MONC402 on EPC mobilization in response to treatment with docetaxel in 4T1 tumor bearing mice.
4T1 tumors were implanted on Day 0 at 1×10^5 cells/mouse into the 4th mammary fat pad. Pumps with Saline or MONC402 were implanted on Day 0, immediately after tumor cell injections. Mice were randomized to the following groups: • 1. Saline Control, n=8 • 2. Docetaxel, 40 mg/kg, Day 6, n=8 • 3. M402, pump, 40 mg/kg/day, Day 0, n=8 • 4. Docetaxel, 40 mg/kg, Day 6+M402, pump, 40 mg/kg/day, Day 0, n=8
Docetaxel or Saline was administered i.p. on Day 6 in the AM. Four h later, mice were bled by submandibular plexus for EPC profiling and soluble factor analysis. Primary tumors were removed on Day 9 for histological analyses. Blood was also collected for soluble factor analyses (72 h after docetaxel dosing). Serum samples were analyzed using a 19-plex Luminex kit. In addition, samples were also tested for SDF-1α levels by ELISA.

[6] = tested on: endothelial progenitor cells (EPC); test: EPC mobilization in mice, second experiment (daily MONC402 with G-CSF); format: in vivo; conditions: G-CSF 200 μg/kg s.c. 5 consecutive days; docetaxel i.p. 40 mg/kg
Experimental: In a second experiment, it was tested if daily dosing for 5 days with MONC402 would generate a stronger inhibitory effect on EPC mobilization caused by treatment with a taxane.
Mice (10 mice/group) were dosed s.c. with Saline or MONC402 (40 mg/kg), or DC101 (40 mg/kg, as a positive inhibition control with docetaxel). About 30 min later, mice were given docetaxel (i.p., 40 mg/kg) or saline control. As a positive control, 2 groups of mice were also dosed with G-CSF (200 μg/kg) s.c. for 5 consecutive days±daily MONC402. 24 h later, the mice were euthanized, and 500-800 μL of blood taken by cardiac puncture. 150 μL were transferred into 5 mL of lysis buffer for flow cytometric analysis of EPC. The remaining 350-500 μL were processed for serum (SDF-1α). For flow cytometry, cells were washed and blocked and then stained with CD13-FITC, CD117-PE, 7-AAD, VEGFR2-APC, and CD45-PE/Cy7. A total of 50,000 cells were acquired per sample in the PBMNC gate.

With 5FU/leucovorin the “Mean tumor area (% of vehicle)” value [1] was 15.7 % of vehicle, the “Mean tumor area (mm^2)” value [1] was 13.12 mm^2 and the “Mean tumor weight” value [1] was 0.037 g. The “Mean tumor weight (% of vehicle)” value [1] was 11.94 % of vehicle.

`N.N.[Cl][Pt][Cl]` [Cisplatin, cisplatin] was tested, and the “Average lung tumor size” value (4T1 cells [2]) was 1.41, the Average tumor size (4T1 cells [2]) was 1.36 and the “Lung tumor nodule #/animal” value (4T1 cells [2]) was 5.6 ± 4.4. The Total tumor nodule (4T1 cells [2]) was 89, the Total tumor volume (4T1 cells [2]) was 134.13 and the “EPC mobilization compared to Saline control” value [3] was “did not show this effect”. The 4T1 lung metastasis (4T1 cells [4]) was “significant anti-tumor efficacy”.

In the case of `CC(=O)O[C@@]12CO[C@@H]1C[C@H](O)[C@@]1(C)C(=O)[C@H](O)C3=C(C)[C@@H](OC(=O)[C@H](O)[C@@H](NC(=O)OC(C)(C)C)c4ccccc4)C[C@@](O)([C@@H](OC(=O)c4ccccc4)[C@H]21)C3(C)C` [Docetaxel, docetaxel], the “EPC in the blood at 4 h” value [5] is reported as “significant increase”, the “EPC mobilization compared to Saline control” value [3] is reported as “significant increase” and the EPC mobilization [6] is reported as “significant increase”.

B1: granulocyte colony stimulating factor (protein, UniProt P09919 31-207, looked up)
Granulocyte …: TPLGPASSLPQSFLLKCLEQVRKIQGDGAALQEKLVSECATYKLCHPEELVLLGHSLGIPWAPLSSCPSQALQLAGCLSQLHSGLFLYQGLLQALEGISPELGPTLDTLQLDVADFATTIWQQMEELGMAPALQPTQGAMPAFASAFQRRAGGVLVASHLQSFLEVSYRVLRHLAQP
notes: growth factor used as positive control for EPC and MDSC mobilization
For B1, the “EPC mobilization compared to Saline control” value [3] was “significant increase” and the EPC mobilization [6] was “significant increase”.
